Data published in patent US20230167073A1 (Teijin Pharma Limited, priority 2020, published 2023).

biological target: T1, Human TRPC6 (Homo sapiens, UniProt Q9Y210); experiment: Evaluation of TRPC6 channel inhibitory activity (1), FLIPR Calcium 5 Assay Kit, OAG stimulation (Compound Nos. 1-1293); format: cell-based; details: Human TRPC6 stably-expressing cells, OAG 30 μM, FLIPR Calcium 5 Assay Kit; read-out: Inhibitory activity (pIC50 class) (converted)
T1 construct: expressed in transfected cells
T1 sequence (Q9Y210 1-931): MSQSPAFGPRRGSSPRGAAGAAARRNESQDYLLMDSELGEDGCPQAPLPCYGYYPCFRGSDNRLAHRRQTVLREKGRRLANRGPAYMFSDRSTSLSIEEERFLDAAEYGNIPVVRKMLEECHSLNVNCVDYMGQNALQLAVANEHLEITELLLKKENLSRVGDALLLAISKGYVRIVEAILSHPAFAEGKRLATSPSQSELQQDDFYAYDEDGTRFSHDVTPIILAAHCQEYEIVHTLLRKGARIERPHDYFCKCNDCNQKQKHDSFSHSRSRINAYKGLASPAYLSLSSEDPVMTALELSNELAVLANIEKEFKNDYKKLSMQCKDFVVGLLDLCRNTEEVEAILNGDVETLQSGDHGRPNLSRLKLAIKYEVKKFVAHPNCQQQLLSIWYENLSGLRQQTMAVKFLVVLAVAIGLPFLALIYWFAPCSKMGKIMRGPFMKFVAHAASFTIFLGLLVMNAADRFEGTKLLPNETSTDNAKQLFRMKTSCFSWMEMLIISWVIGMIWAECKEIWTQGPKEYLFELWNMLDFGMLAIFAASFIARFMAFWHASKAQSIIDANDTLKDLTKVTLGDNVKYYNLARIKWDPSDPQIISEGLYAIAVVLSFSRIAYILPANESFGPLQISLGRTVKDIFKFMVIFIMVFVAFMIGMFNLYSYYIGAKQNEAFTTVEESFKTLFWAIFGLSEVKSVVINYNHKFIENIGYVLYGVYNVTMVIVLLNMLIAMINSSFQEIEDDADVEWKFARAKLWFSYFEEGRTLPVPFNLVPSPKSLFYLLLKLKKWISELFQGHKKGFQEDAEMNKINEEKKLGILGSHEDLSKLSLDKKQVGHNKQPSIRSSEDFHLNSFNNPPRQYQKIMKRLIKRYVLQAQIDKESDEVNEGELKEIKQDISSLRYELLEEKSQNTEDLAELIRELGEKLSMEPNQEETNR
How it was run: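 Cells stably expressing human TRPC6, plated 24 h before, were loaded 30 min with Calcium 5 dye plus probenecid in HEPES-HBSS. Compound was added 20 min before OAG (30 μM final) and fluorescence tracked on FLIPR. Inhibition normalised to no-compound and no-compound/no-OAG wells; pIC50 from four-parameter fit, reported as +/++/+++ categories.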

Row | Compound | IC50 [nM]
1 | Cc1nc(Oc2cc(C#N)ccc2-c2ncc(CCN)cn2)cc(N(C)C2COC2)n1 [compound 879, 4-[5-(2-aminoethyl)pyrimidm-2-yl]-3-[2-methyl-6-[methyl(oxetan-3-yl)amino]pyrimidin-4-yl]oxybenzonitrile] | > 1000
2 | CN(C)c1nnc(Oc2cc(C#N)ccc2-c2ncc(CCN)cn2)s1 [compound 727, 4-[5-(2-aminoethyl)pyrimidin-2-yl]-3-[[5-(dimethylamino)-1,3,4-thiadiazol-2-yl]oxy]benzonitrile] | 10 to 1000
3 | Cc1nc(N2CCOCC2)sc1C(=O)c1cc(C#N)ccc1-c1ncc(CN)cn1 [Compound No. 1064, 4-[5-(Aminomethyl)pyrimidin-2-yl]-3-(4-methyl-2-morpholin-4-yl-1,3-thiazole-5-carbonyl)benzonitrile] | 10 to 1000
4 | Cc1cc(Oc2cc(C#N)ccc2-c2ccc(C(N)C(N)=O)cn2)cc(N2CCOCC2)n1 (stereo not drawn) [compound 418, 2-amino-2-[6-[4-cyano-2-(2-methyl-6-morpholin-4-ylpyridin-4-yl)oxyphenyl]pyridin-3-yl]acetamide] | 10 to 1000
5 | CCCN(CCC)c1cc(Oc2cc(C#N)ccc2-c2ncc(CCN)cn2)n(C)n1 [compound 759, 4-[5-(2-aminoethyl)pyrimidin-2-yl]-3-[5-(dipropylamino)-2-methylpyrazol-3-yl]oxybenzonitrile] | < 10
6 | N#Cc1ccc(-c2ncc(CCN)cn2)c(Cn2cc(C3CC3)nn2)c1 [Compound No. 1187, 4-[5-(2-Aminoethyl)pyrimidin-2-yl]-3-[(4-cyclopropyltriazol-1-yl)methyl]benzonitrile] | < 10
7 | N#Cc1ccc(-c2ccc(CCN)cc2)c(C(=O)c2nnc(N3CCOCC3)o2)c1 [compound 1086, 4-[4-(2-aminoethyl)phenyl]-3-(5-morpholin-4-yl-1,3,4-oxadiazole-2-carbonyl)benzonitrile] | < 10
8 | Cc1nc(Oc2cc(C#N)ccc2-c2ccc(CCN)cc2)cc(-c2ccn(C)c2)n1 [Compound 29, 4-[4-(2-aminoethyl)phenyl]-3-[2-methyl-6-(1-methylpyrrol-3-yl)pyrimidin-4-yl]oxybenzonitrile] | 10 to 1000
9 | Cc1nc(-c2cccc(F)c2)cn1Cc1cc(C#N)ccc1-c1ccc([C@H](O)CN)cn1 [compound 1161, 4-[5-[(1S)-2-amino-1-hydroxyethyl]pyridin-2-yl]-3-[[4-(3-fluorophenyl)-2-methylimidazol-1-yl]methyl]benzonitrile] | 10 to 1000
10 | Cc1c(C(=O)c2cc(C#N)ccc2-c2ncc(CCN)cn2)cnn1CC1CC1 [compound 1034, 4-[5-(2-aminoethyl)pyrimidin-2-yl]-3-[1-(cyclopropylmethyl)-5-methylpyrazole-4-carbonyl]benzonitrile] | 10 to 1000
11 | Cc1nc(Oc2cc(C#N)ccc2-c2ccc(C(CN)c3ccccc3)cc2)cc(N2CCOCC2)n1 (stereo not drawn) [Compound 59, 4-[4-(2-Amino-1-phenylethyl)phenyl]-3-(2-methyl-6-morpholin-4-ylpyrimidin-4-yl)oxybenzonitrile] | 10 to 1000
12 | N#Cc1ccc(-c2ncc(CCN)cn2)c(Sc2cnnc(N3CCOCC3)c2)c1 [compound 1257, 4-[5-(2-aminoethyl)pyrimidin-2-yl]-3-(6-morpholin-4-ylpyridazin-4-yl)sulfanylbenzonitrile] | 10 to 1000
13 | Cn1nc(-c2cncnc2)cc1Oc1cc(C#N)ccc1-c1ncc(CN)cn1 [compound 930, 4-[5-(aminomethyl)pyrimidin-2-yl]-3-(2-methyl-5-pyrimidin-5-ylpyrazol-3-yl)oxybenzonitrile] | 10 to 1000
14 | Cc1nc(Oc2cc(C#N)ccc2-c2nc(C)c(CN(C)C)s2)cc(-c2ccccc2)n1 [Compound 143, 4-[5-[(dimethylamino)methyl]-4-methyl-1,3-thiazol-2-yl]-3-(2-methyl-6-phenylpyrimidin-4-yl)oxybenzonitrile] | > 1000
15 | N#Cc1ccc(-c2ncc(CCN)cn2)c(Oc2cc(C3CC3)nn2CC(F)(F)F)c1 [compound 379, 4-[5-(2-aminoethyl)pyrimidin-2-yl]-3-[5-cyclopropyl-2-(2,2,2-trifluoroethyl)pyrazol-3-yl]oxybenzonitrile] | < 10
